Test results taken from US6919190B2, “Regulation of carbon assimilation” (priority 1999, dated 2005).

Assays:
[1] = molecular target: T1, PEP carboxylase of Corynebacterium glutamicum strain ATCC 13032 (wild-type) (Corynebacterium glutamicum, UniProt P12880); assay: PEP carboxylase activity in crude extract, wild-type strain; format: biochemical; conditions: crude extract of ATCC 13032, relative to Complete = 100%, change in absorbance at 340 nm/min
T1 construct: endogenous in cells; host or cells: Corynebacterium glutamicum ATCC 13032, crude extract
Description: (§1) It is possible for the measurement of the enzyme activity to use a spectrometric method (Yoshinage, T., et al., J. Biochem. 68:747-750 (1970)) and the like. For example, when the enzyme assay is measured in a continuous or kinetic mode while the reaction is occurring, the reaction can be measured spectrophotometrically by following the decrease in the absorbance (usually at 340 nanometers).
(§2) Activity units were measured spectrophotometrically as the change in absorbance (340 nm/min) using crude extracts.

[2] = tested on: PEP carboxylase of Corynebacterium glutamicum strain BF100 (lysine-producing); assay: PEP carboxylase activity in crude extract, lysine-producing strain; format: biochemical; conditions: relative to Complete = 100%, change in absorbance at 340 nm/min
Description: as §1, §2

[3] = molecular target: T2, PEP carboxylase from a strain of Medicago sativa (Medicago sativa, UniProt Q02735); conditions: Vance et al., Plant Physiol. 75:261-264 (1984); cited from earlier work
T2 sequence (Q02735 1-966): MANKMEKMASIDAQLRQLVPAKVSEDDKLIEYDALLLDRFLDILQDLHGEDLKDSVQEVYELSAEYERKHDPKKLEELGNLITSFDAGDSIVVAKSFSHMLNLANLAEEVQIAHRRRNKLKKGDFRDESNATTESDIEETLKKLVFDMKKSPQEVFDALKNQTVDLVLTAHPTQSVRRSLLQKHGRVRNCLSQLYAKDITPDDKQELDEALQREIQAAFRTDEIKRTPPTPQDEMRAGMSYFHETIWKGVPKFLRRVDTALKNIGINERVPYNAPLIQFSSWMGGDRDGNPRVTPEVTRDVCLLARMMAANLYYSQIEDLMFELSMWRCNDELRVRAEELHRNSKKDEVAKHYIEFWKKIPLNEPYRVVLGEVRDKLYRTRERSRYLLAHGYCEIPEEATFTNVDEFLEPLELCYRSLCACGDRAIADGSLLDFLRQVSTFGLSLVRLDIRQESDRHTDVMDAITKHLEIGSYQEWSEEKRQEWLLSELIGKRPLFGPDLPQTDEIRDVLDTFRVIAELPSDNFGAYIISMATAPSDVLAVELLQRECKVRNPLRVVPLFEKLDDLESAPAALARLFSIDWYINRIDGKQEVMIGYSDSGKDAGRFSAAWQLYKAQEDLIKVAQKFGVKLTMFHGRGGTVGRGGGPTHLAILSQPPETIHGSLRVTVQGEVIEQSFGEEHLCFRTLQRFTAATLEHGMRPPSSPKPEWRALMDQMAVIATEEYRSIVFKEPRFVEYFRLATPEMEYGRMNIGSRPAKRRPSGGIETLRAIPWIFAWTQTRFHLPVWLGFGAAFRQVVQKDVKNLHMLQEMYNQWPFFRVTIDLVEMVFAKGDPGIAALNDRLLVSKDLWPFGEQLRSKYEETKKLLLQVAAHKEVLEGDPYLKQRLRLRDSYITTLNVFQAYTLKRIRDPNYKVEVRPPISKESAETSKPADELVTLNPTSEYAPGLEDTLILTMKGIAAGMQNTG

T1 sequence (P12880 whole entry): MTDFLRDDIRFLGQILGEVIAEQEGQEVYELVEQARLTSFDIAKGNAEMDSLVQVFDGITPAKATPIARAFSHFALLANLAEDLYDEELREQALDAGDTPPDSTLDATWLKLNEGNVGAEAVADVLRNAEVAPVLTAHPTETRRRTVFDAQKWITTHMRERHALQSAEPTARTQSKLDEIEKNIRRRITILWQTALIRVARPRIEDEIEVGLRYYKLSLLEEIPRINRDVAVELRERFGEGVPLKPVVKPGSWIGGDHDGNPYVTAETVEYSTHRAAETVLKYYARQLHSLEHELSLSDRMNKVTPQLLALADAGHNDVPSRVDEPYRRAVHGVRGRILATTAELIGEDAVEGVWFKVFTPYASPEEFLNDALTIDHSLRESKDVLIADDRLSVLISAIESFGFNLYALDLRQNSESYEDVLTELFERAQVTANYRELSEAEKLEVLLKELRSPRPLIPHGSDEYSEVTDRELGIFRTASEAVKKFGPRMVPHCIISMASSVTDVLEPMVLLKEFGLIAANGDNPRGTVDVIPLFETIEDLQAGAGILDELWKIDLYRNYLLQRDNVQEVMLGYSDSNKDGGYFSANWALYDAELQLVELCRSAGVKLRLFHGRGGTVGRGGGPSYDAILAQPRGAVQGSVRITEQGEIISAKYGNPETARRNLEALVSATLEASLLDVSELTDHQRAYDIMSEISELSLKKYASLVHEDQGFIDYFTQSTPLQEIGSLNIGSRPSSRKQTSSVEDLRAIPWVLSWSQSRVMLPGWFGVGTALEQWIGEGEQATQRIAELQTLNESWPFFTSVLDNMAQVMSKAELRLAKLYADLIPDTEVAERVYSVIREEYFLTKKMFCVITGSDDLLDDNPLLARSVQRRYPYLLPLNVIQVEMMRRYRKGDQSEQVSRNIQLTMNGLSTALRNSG

| SMILES | PEP Carboxylase Activity +Aspartate (5 mM) ([1]; 5 mM aspartate) [%] | PEP Carboxylase Activity +Aspartate (5 mM) ([2]; 5 mM aspartate) [%] | inhibition of PEP carboxylase activity [3] | PEP Carboxylase Activity −Acetyl CoA ([1]; acetyl CoA omitted) [%] | PEP Carboxylase Activity −Acetyl CoA ([2]; acetyl CoA omitted) [%] |
| --- | --- | --- | --- | --- | --- |
| N[C@@H](CC(=O)O)C(=O)O [Aspartate, L-aspartic acid] | 100 | 17 | not substantially inhibited | – | – |
| CC(=O)SCCNC(=O)CCNC(=O)[C@H](O)C(C)(C)COP(=O)(O)OP(=O)(O)OC[C@H]1O[C@@H](n2cnc3c(N)ncnc32)[C@H](O)[C@@H]1OP(=O)(O)O [Acetyl CoA, acetyl coenzyme A] | – | – | – | 56 | 15 |
